Measurements as given in PubChem BioAssay (NCI).
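Step 1: Grow cells in 96-well plates. Step 2: Expose to compound for 48 hours at 5 concentrations. Step 3: Interpolate endpoints linearly; if unreached, use highest concentration. The concentration for full growth arrest is given as TGI.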

Assays:
Assay in all cases: inhibition of tumour cell growth, NCI panel, 48 h
[1] = system: 786-0 renal
[2] = system: A498 renal
[3] = system: A549 NSCLC
[4] = system: ACHN renal
[5] = system: BT-549 breast
[6] = system: CAKI-1 renal
[7] = system: CCRF-CEM leukemia
[8] = system: COLO 205 colon
[9] = system: DU-145 prostate
[10] = system: EKVX NSCLC
[11] = system: HCC-2998 colon
[12] = system: HCT-116 colon
[13] = system: HCT-15 colon
[14] = system: HL-60(TB) leukemia
[15] = system: HOP-62 NSCLC
[16] = system: HOP-92 NSCLC
[17] = system: HS 578T breast
[18] = system: HT29 colon
[19] = system: IGROV1 ovarian
[20] = system: K-562 leukemia
[21] = system: KM12 colon
[22] = system: LOX IMVI melanoma
[23] = system: M14 melanoma
[24] = system: MALME-3M melanoma
[25] = system: MCF7 breast
[26] = system: MDA-MB-231 breast
[27] = system: MDA-MB-435
[28] = system: MDA-N
[29] = system: MOLT-4 leukemia
[30] = system: NCI-H226 lung
[31] = system: NCI-H23 lung
[32] = system: NCI-H460 lung
[33] = system: NCI-H522 lung
[34] = system: NCI/ADR-RES ovarian
[35] = system: OVCAR-3 ovarian
[36] = system: OVCAR-4 ovarian
[37] = system: OVCAR-5 ovarian
[38] = system: OVCAR-8 ovarian
[39] = system: PC-3 prostate
[40] = system: RPMI-8226 leukemia
[41] = system: RXF 393 renal
[42] = system: SF-268 CNS
[43] = system: SF-295 CNS
[44] = system: SF-539 CNS
[45] = system: SK-MEL-2 melanoma
[46] = system: SK-MEL-28 melanoma
[47] = system: SK-MEL-5 melanoma
[48] = system: SK-OV-3 ovarian
[49] = system: SN12C renal
[50] = system: SNB-19 CNS
[51] = system: SNB-75 CNS
[52] = system: SR leukemia
[53] = system: SW-620 colon
[54] = system: T-47D breast
[55] = system: TK-10 renal
[56] = system: U251 CNS
[57] = system: UACC-257 melanoma
[58] = system: UACC-62 melanoma
[59] = system: UO-31 renal

Compound: COc1cc(C2c3cc4c(cc3OC(N3CCCCC3)C2C)OCO4)cc(OC)c1OC (stereo not drawn)
- TGI [1]: 16.3 µM
- TGI [2]: 12.8 µM
- TGI [3]: 36.1 µM
- TGI [4]: 28.7 µM
- TGI [5]: > 100 µM
- TGI [6]: 17.5 µM
- TGI [7]: 23.2 µM
- TGI [8]: 11.3 µM
- TGI [9]: 19.8 µM
- TGI [10]: > 100 µM
- TGI [11]: 8.39 µM
- TGI [12]: 15.3 µM
- TGI [13]: > 100 µM
- TGI [14]: > 22.2 µM
- TGI [15]: 10.2 µM
- TGI [16]: 48.1 µM
- TGI [17]: 7.23 µM
- TGI [18]: 19.8 µM
- TGI [19]: 26 µM
- TGI [20]: 13.7 µM
- TGI [21]: 37.4 µM
- TGI [22]: 45 µM
- TGI [23]: 15 µM
- TGI [24]: > 84.6 µM
- TGI [25]: 19.4 µM
- TGI [26]: 21 µM
- TGI [27]: 2.91 µM
- TGI [28]: 3.28 µM
- TGI [29]: 67.4 µM
- TGI [30]: 13.5 µM
- TGI [31]: > 49.8 µM
- TGI [32]: 18 µM
- TGI [33]: 9.99 µM
- TGI [34]: 17.1 µM
- TGI [35]: 6.66 µM
- TGI [36]: > 100 µM
- TGI [37]: > 45.7 µM
- TGI [38]: > 63.6 µM
- TGI [39]: > 100 µM
- TGI [40]: 37.9 µM
- TGI [41]: 5.49 µM
- TGI [42]: > 53.7 µM
- TGI [43]: 5.77 µM
- TGI [44]: 5.9 µM
- TGI [45]: 14.9 µM
- TGI [46]: > 100 µM
- TGI [47]: 17.6 µM
- TGI [48]: 12.6 µM
- TGI [49]: > 100 µM
- TGI [50]: 26.2 µM
- TGI [51]: 19.3 µM
- TGI [52]: > 54.2 µM
- TGI [53]: > 55.4 µM
- TGI [54]: > 53.8 µM
- TGI [55]: 35.4 µM
- TGI [56]: 12.7 µM
- TGI [57]: > 82.7 µM
- TGI [58]: 47 µM
- TGI [59]: 46.2 µM

Compound: CC(C)(Cl)C(Cl)CC/C(CBr)=C(\Cl)CCl (stereo not drawn)
- TGI [1]: 6.5 µM
- TGI [2]: 35.3 µM
- TGI [3]: 34.1 µM
- TGI [4]: 28.3 µM
- TGI [5]: 3.63 µM
- TGI [6]: 9.92 µM
- TGI [7]: 2.95 µM
- TGI [8]: 11.1 µM
- TGI [9]: 26.7 µM
- TGI [10]: 31.8 µM
- TGI [11]: 27.7 µM
- TGI [12]: 8.74 µM
- TGI [13]: 4.35 µM
- TGI [14]: 4.65 µM
- TGI [15]: 26 µM
- TGI [16]: 23.7 µM
- TGI [17]: 25.3 µM
- TGI [18]: 14.7 µM
- TGI [19]: 4.66 µM
- TGI [20]: 17.1 µM
- TGI [21]: 19.5 µM
- TGI [22]: 1.35 µM
- TGI [23]: 3.61 µM
- TGI [24]: 20.2 µM
- TGI [25]: 32.1 µM
- TGI [26]: 7.28 µM
- TGI [27]: 8.56 µM
- TGI [28]: 5.26 µM
- TGI [29]: 2.63 µM
- TGI [30]: 15.3 µM
- TGI [31]: 14.4 µM
- TGI [32]: 28 µM
- TGI [33]: 1.88 µM
- TGI [34]: 34 µM
- TGI [35]: 12.2 µM
- TGI [36]: 7.45 µM
- TGI [37]: 28.3 µM
- TGI [38]: 12.6 µM
- TGI [39]: 20 µM
- TGI [40]: 4.59 µM
- TGI [41]: 23 µM
- TGI [42]: 29.1 µM
- TGI [43]: 30.6 µM
- TGI [44]: 15.5 µM
- TGI [45]: 5.32 µM
- TGI [46]: 8.84 µM
- TGI [47]: 6.58 µM
- TGI [48]: 17.9 µM
- TGI [49]: 9.47 µM
- TGI [50]: 32.7 µM
- TGI [51]: 14.1 µM
- TGI [52]: 3.31 µM
- TGI [53]: 4.12 µM
- TGI [54]: 3.88 µM
- TGI [55]: 27.7 µM
- TGI [56]: 16.2 µM
- TGI [57]: 14 µM
- TGI [58]: 3.79 µM
- TGI [59]: 17 µM
